Counter-ions that a name gives are not always drawn. Like-named read-outs stand apart in the source and are kept apart here.
Key:
[1] = system: crisis produced with electroshock; test: Electroshock (M.E.S.), protection from extensor phase of hind paws; type: in vivo, male albine Swiss mice; conditions: Mus musculus
Procedure: (§1) The preferred method is that according to Schotten-Baumann. […] Preferably an excess of the same amine is used both as acid binding substance and as solvent. If the amine is a low-boiling one the reaction is carried out in a sealed tube while if the amine has a high-boiling point is preferred to operate at the boiling temperature of the reaction mixture. […] Materials and methods. The animals used in the tests, unless otherwise indicated, were male albine Swiss mice weighing 19-23 g; each animal has been used only once.
(§2) Electroshock (M.E.S.). The method followed in performing the electroshock is C. H. Cashin and J. Jackson's method (J.Pharm.Pharmacol.,1962, 14 (supl.) 445) modified as follows: the electrodes are placed in the outer ear which is, before the shock, filled with a physiological solution. The applied voltage is of 92 volts with a current of 50 Hz stabilized with Selonix H.T. 4420 stabilizer; duration of shock 0.2 seconds. […] (E. A. Swinyard, W. C. Brown; L. S. Goodman, J. Pharmacol., 1952, 106, 319) Schock by cardiazol (M.M.S.). 38 mg/kg of cardiazol, under the form of a 0.38% aqueous solution, is quickly injected in the dorsal vein of the mouse tail (L. S. Goodman, M. Singh Grewal, W. C. Brown, E. A. Swinyard, J. Pharmacol. 1953, 108, 168). The animals are considered as protected when the extensor phase of the hind paws is eliminated during the tonic crisis. The so obtained data have been elaborated by calculating the ED50 and the LD50 according to Lichtfield-Wilcoxon's method (J. Pharmacol. 1949, 96, 99).

[2] = system: crisis produced with cardiazol; test: Schock by cardiazol (M.M.S.), protection from extensor phase of hind paws; type: in vivo, male albine Swiss mice; conditions: Mus musculus
Procedure: as §1, §2

[3] = in vivo; conditions: mouse, ip
Procedure: as §1, §2

[4] = sc, 0.5 h, new compounds (Table 2), under skin, 30 minutes ante, as hydrochlorides, read-out: ED50 M.E.S.
[5] = sc, 0.5 h, new compounds (Table 2), under skin, 30 minutes ante, as hydrochlorides, cardiazol 38 mg/kg i.v., read-out: ED50 M.M.S.
[6] = sc, 0.5 h, read-out: M.M.S. ED50
[7] = sc, 0.5 h, reference compounds (Table 1), under skin, 30 minutes ante, cardiazol 38 mg/kg i.v., read-out: M.M.S. ED50
[8] = sc, 0.5 h, reference compounds (Table 1), under skin, 30 minutes ante, read-out: M.E.S.-ED50

SMILES: O=C(CCN1CCCC1)NC1[C@H](c2ccccc2)[C@H]1c1ccccc1 (relative stereo) [cis-trans (line b76)]
- ED50 [1, 4]: 24 mg/kg
- ED50 [2, 5]: 20 mg/kg

SMILES: O=C(CCN1CCCCC1)NC1[C@H](c2ccccc2)[C@H]1c1ccccc1 (relative stereo) [cis-trans (line b79)]
- ED50 [1, 4]: 16 mg/kg
- ED50 [2, 5]: 15 mg/kg

SMILES: CN1CCN(CCC(=O)NC2[C@H](c3ccccc3)[C@H]2c2ccccc2)CC1 (relative stereo) [cis-trans (line b82)]
- ED50 [1, 4]: 275 mg/kg

SMILES: CCN(CC)CCC(=O)NC1[C@H](c2ccccc2)[C@H]1c1ccccc1 (relative stereo) [cis-trans, R1 = C2 H5, R2 = C2 H5, N-(beta-diethylamino)propionyl-2,3 -cis,trans-diphenylcyclopropylamine]
- ED50 [1, 4]: 33.5 mg/kg
- ED50 [2, 5]: 27 mg/kg
- LD50 at 72 h [3]: 79 mg/kg

SMILES: CN(CCC(=O)NC1[C@H](c2ccccc2)[C@H]1c1ccccc1)Cc1ccccc1 (relative stereo) [cis-trans, R1 = CH3, R2 = CH2 --C6 H5, N-[beta-(N'-benzyl)methylamino]propionyl-2,3-cis,trans-diphenylcyclopropylamine hydrochloride]
- ED50 [1, 4]: 91 mg/kg
- ED50 [2, 5]: 98 mg/kg

SMILES: CN(C)CCC(=O)NC1[C@H](c2ccccc2)[C@H]1c1ccccc1 (relative stereo) [cis-trans, R1 = CH3, R2 = CH3, N-(beta-dimethylamino)propionyl-2,3 -cis,trans-diphenylcyclopropylamine]
- ED50 [1, 4]: 21.8 mg/kg
- ED50 [2, 5]: 16.5 mg/kg
- LD50 at 72 h [3]: 88 mg/kg

SMILES: CCNCCC(=O)NC1[C@H](c2ccccc2)[C@H]1c1ccccc1 (relative stereo) [cis-trans, R1 = H, R2 = C2 H5, N-(beta-ethylamino)propionyl- 2,3 -cis,trans-diphenylcyclopropylamine hydrochloride]
- ED50 [1, 4]: > 90 mg/kg
- ED50 [2, 5]: > 90 mg/kg
- LD50 at 72 h [3]: 89.5 mg/kg

SMILES: CNCCC(=O)NC1[C@H](c2ccccc2)[C@H]1c1ccccc1 (relative stereo) [cis-trans, R1 = H, R2 = CH3, N-(beta-methylamino)-propionyl-2,3 -cis,trans-diphenyl cyclopropylamine hydrochloride]
- ED50 [1, 4]: > 120 mg/kg
- ED50 [2, 5]: > 120 mg/kg
- LD50 at 72 h [3]: 120 mg/kg

SMILES: CCC1(c2ccccc2)C(=O)NC(=O)NC1=O [Phenobarbital sodium salt, reference compound]
- ED50 ([1]; sc, 0.5 h, read-out: M.E.S.-ED50): 35 mg/kg
- ED50 [2, 6]: 4.5 mg/kg
- LD50 at 72 h ([3]; in vivo): 182 mg/kg

SMILES: CN(C)C(=O)Nc1ccccc1 [Phenurone, 1,1-dimethyl-3-phenyl-urea, reference compound]
- ED50 ([1]; po, 1 h, read-out: M.E.S.-ED50): 115 mg/kg
- ED50 ([2]; po, 1 h, read-out: M.M.S. ED50): 50 mg/kg

SMILES: CN1C(=O)OC(C)(C)C1=O [Trimethadione, reference compound]
- ED50 [2, 6]: 175 mg/kg

SMILES: CCC1(C)CC(=O)NC1=O (centres unmarked) [ethosuximide, reference compound]
- ED50 [2, 7]: 50 mg/kg

SMILES: Cc1ccccc1OCC(O)CO (centres unmarked) [mephenesin, reference compound]
- ED50 [1, 8]: 245 mg/kg
- ED50 [2, 7]: 180 mg/kg

SMILES: O=C1NC(=O)C(c2ccccc2)(c2ccccc2)N1 [phenitoine sodium salt, reference compound]
- ED50 [1, 8]: 15 mg/kg
- ED50 [2, 7]: 7.1 mg/kg
- LD50 at 72 h ([3]; in vivo): 120 mg/kg

SMILES: CCC1(c2ccccc2)C(=O)NCNC1=O [primidone, reference compound]
- ED50 ([2]; po, reference compound (Table 1), per os, 6 hours ante, cardiazol 38 mg/kg i.v., read-out: M.M.S. ED50): 5.2 mg/kg
